Laboratory results: patent US8691753B2 (priority 2009, dated 2014)
Read-outs that look alike come from different tables or passages of the source.

What was measured:
Assay type in all cases: biochemical
MMP-2h = MMP-2h (Homo sapiens (Human), UniProt P08253); assay: Inhibition constant (Ki) on MMP-2h
Outline: (§1)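 Human MMPs; Ki by published enzyme-inhibition method.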

MMP-3h = MMP-3h (Homo sapiens (Human), UniProt P08254); assay: Inhibition constant (Ki) on MMP-3h
Outline: as §1

MMP-8h = MMP-8h (Homo sapiens (Human), UniProt P22894); assay: Inhibition constant (Ki) on MMP-8h
MMP-9h = MMP-9h (Homo sapiens (Human), UniProt P14780); assay: Inhibition constant (Ki) on MMP-9h
Outline: as §1

MMP-10h = MMP-10h (Homo sapiens (Human), UniProt P09238); assay: Inhibition constant (Ki) on MMP-10h
MMP-12h = MMP-12h (Homo sapiens (Human), UniProt P39900); assay: Inhibition constant (Ki) on MMP-12h
MMP-13h = MMP-13h (Homo sapiens (Human), UniProt P45452); assay: Inhibition constant (Ki) on MMP-13h
Outline: as §1

MMP-14h = MMP-14h (Homo sapiens (Human), UniProt P50281); assay: Inhibition constant (Ki) on MMP-14h
Outline: as §1

human MMPs = assay: Inhibition of the panel of human MMPs (overall statements, selectivity); details: summary of table I
MMP-1h = MMP-1h (Homo sapiens (Human), UniProt P03956); assay: Inhibition constant (Ki) on MMP-1h
Excerpt: (§2) The inhibition constant Ki of these compounds has been determined according to the protocol described by Devel et al, 2006, J. Biol. Chem. (7).
(§3) In this table I and also in table II below, “h” corresponds to human. All of the compounds have therefore been evaluated on human MMPs.

MMP-7h = MMP-7h (Homo sapiens (Human), UniProt P09237); assay: Inhibition constant (Ki) on MMP-7h
Excerpt: as §2, §3

[1] = read-out: Ki MMP-2h, human MMP-2
[2] = read-out: Ki MMP-3h, human MMP-3
[3] = read-out: Ki MMP-8h, human MMP-8
[4] = read-out: Ki MMP-9h, human MMP-9
[5] = read-out: Ki MMP-10h, human MMP-10
[6] = read-out: Ki MMP-12h, human MMP-12
[7] = read-out: Ki MMP-13h, human MMP-13
[8] = read-out: Ki MMP-14h, human MMP-14
[9] = read-out: Ki MMP-1h, human MMP-1
[10] = read-out: Ki MMP-7h, human MMP-7

Chain of MMP-2h (P08253 110-660): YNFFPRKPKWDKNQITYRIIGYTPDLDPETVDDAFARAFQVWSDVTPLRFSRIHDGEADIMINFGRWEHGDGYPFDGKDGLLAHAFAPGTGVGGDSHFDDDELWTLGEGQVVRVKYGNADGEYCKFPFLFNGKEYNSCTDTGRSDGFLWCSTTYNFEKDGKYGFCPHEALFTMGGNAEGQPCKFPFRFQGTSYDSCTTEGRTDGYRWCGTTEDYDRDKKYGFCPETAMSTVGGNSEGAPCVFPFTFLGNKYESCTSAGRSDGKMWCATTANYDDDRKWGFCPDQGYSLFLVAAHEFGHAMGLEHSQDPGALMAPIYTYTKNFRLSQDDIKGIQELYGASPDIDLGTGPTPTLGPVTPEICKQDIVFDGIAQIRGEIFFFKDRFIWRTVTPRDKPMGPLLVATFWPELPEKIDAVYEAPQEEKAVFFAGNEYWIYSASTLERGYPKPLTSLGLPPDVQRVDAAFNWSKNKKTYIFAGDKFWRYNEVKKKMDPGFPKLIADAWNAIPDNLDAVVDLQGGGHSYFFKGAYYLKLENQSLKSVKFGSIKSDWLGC
Chain of MMP-7h (P09237 95-267): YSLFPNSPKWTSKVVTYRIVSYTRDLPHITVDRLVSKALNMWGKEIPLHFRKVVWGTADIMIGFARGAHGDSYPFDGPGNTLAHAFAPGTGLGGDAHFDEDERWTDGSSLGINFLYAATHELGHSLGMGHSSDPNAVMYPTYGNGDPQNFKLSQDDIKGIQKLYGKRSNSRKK
Chain of MMP-3h (P08254 100-477): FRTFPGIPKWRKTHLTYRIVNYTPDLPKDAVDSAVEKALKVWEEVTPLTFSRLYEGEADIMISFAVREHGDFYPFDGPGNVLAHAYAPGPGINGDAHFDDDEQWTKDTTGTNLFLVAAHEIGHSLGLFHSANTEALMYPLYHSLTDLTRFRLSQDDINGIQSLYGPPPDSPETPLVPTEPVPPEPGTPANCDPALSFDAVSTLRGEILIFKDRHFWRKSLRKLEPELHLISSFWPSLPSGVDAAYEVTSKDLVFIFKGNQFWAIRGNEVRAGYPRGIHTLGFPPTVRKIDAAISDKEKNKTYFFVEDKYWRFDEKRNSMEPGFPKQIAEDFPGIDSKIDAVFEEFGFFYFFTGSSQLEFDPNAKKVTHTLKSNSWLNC
Chain of MMP-12h (P39900 106-470): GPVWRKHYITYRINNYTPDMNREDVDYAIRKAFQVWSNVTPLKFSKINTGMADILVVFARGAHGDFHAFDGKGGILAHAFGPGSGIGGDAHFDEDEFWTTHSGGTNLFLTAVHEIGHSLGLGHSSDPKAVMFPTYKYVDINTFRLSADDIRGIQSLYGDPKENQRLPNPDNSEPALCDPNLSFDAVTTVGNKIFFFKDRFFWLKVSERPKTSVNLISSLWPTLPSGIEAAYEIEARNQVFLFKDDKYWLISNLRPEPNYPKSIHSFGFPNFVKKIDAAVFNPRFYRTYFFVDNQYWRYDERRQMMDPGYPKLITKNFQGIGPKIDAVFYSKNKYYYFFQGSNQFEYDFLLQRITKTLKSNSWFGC
Chain of MMP-10h (P09238 99-476): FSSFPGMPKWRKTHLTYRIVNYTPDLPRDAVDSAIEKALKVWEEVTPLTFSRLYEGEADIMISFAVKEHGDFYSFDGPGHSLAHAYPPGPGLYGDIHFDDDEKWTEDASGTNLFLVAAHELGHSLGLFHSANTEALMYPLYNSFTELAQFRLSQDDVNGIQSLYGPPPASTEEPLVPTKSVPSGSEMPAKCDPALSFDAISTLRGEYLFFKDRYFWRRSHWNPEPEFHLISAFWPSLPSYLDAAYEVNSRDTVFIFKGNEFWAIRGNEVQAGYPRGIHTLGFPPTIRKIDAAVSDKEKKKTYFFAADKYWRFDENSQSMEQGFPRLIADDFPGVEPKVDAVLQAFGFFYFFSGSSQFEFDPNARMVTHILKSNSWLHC
Chain of MMP-8h (P22894 101-467): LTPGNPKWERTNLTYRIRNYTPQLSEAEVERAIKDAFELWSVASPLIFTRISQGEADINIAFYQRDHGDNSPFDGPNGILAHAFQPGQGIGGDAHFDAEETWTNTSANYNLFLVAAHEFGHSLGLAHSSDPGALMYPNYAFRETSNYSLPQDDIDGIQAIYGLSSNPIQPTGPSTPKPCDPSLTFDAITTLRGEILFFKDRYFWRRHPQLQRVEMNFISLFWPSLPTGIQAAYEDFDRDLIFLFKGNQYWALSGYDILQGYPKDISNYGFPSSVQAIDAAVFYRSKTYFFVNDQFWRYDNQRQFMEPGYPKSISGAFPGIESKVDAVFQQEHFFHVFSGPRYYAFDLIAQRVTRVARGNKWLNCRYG
Chain of MMP-1h (P03956 100-469): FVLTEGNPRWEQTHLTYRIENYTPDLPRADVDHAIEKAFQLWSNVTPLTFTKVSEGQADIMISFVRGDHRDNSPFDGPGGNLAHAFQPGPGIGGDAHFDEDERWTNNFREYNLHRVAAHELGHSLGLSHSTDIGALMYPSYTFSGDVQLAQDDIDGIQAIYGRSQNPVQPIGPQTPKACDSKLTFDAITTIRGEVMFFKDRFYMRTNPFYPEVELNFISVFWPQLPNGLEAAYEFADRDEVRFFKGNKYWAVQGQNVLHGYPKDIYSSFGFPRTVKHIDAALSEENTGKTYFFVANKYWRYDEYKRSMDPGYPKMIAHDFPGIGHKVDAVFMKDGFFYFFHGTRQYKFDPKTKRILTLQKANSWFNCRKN
Chain of MMP-9h (P14780 94-707): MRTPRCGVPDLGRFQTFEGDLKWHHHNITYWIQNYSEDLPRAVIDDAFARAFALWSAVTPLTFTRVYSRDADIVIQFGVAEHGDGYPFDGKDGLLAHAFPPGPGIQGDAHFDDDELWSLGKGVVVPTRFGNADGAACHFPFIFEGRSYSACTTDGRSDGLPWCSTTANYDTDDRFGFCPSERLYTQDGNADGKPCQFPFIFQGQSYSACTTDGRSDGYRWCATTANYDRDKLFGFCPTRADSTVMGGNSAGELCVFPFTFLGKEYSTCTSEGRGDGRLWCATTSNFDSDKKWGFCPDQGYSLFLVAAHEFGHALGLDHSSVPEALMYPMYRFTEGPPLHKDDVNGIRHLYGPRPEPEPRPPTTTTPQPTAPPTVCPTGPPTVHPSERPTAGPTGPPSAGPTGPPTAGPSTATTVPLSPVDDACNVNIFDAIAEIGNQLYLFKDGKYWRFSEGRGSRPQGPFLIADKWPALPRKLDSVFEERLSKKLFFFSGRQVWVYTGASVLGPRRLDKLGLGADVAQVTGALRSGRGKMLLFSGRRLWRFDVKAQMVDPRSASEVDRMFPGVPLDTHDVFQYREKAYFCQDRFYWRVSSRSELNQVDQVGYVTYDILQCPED

SMILES | Ki (MMP-2h; [1]) | Ki (MMP-3h; [2]) | Ki (MMP-8h; [3]) | Ki (MMP-9h; [4]) | Ki (MMP-10h; [5]) | Ki (MMP-12h; [6]) | Ki (MMP-13h; [7]) | Ki (MMP-14h; [8]) | Ki (MMP-1h; [9]) | Ki (MMP-7h; [10]) | other results
NC(=O)[C@H](CCC(=O)O)NC(=O)[C@H](CCC(=O)O)NC(=O)CCc1csc(-c2ccccc2)n1 [Compound 27, (S)-5-amino-4-((S)-4-carboxy-2-(3-(2-phenylthiazol-4-yl)propanamido)butanamido)-5-oxopentanoic acid] | > 1000 nM | > 1000 nM | > 1000 nM | > 5000 nM | > 5000 nM | > 5000 nM | 900 nM | > 5000 nM |  |  | inhibitory activity toward MMPs (in words) (human MMPs): do not have any inhibitory activity
N=c1ccc2c(-c3cc(C(=O)NCCCOCCOCCOCCCNC(=O)[C@H](CCC(=O)O)NC(=O)[C@H](CCC(=O)O)NC(=O)CCc4ccc(-c5cc(-c6ccccc6)cs5)cc4)ccc3C(=O)O)c3ccc(N)c(S(=O)(=O)O)c3oc-2c1S(=O)(=O)O [Compound 108] |  |  |  |  |  |  |  |  |  |  | Ki (MMP-1h): > 10000 nM; Selectivity factor/MMP12, MMP-1h (MMP-1h; Ki MMP-1h/Ki MMP-12): 670; Ki (MMP-2h): > 2500 nM; Selectivity factor/MMP12, MMP-2h (MMP-2h; Ki MMP-2h/Ki MMP-12): 170; Ki (MMP-3h): > 10000 nM; Selectivity factor/MMP12, MMP-3h (MMP-3h; Ki MMP-3h/Ki MMP-12): 670; Ki (MMP-7h): > 10000 nM; Selectivity factor/MMP12, MMP-7h (MMP-7h; Ki MMP-7h/Ki MMP-12): 670; Ki (MMP-8h): > 2500 nM; Selectivity factor/MMP12, MMP-8h (MMP-8h; Ki MMP-8h/Ki MMP-12): 170; Ki (MMP-9h): > 5000 nM; Selectivity factor/MMP12, MMP-9h (MMP-9h; Ki MMP-9h/Ki MMP-12): 333; Ki (MMP-10h): 833 nM; Selectivity factor/MMP12, MMP-10h (MMP-10h; Ki MMP-10h/Ki MMP-12): 55; Ki (MMP-12h): 15 nM; Selectivity factor/MMP12, MMP-12h (MMP-12h; Ki MMP-12h/Ki MMP-12): 1; Ki (MMP-13h): > 1000 nM; Selectivity factor/MMP12, MMP-13h (MMP-13h; Ki MMP-13h/Ki MMP-12): 66; Ki (MMP-14h): > 10000 nM; Selectivity factor/MMP12, MMP-14h (MMP-14h; Ki MMP-14h/Ki MMP-12): 670
NC(=O)[C@H](CCC(=O)O)NC(=O)[C@H](CCC(=O)O)NC(=O)CCc1cc(-c2ccccc2)on1 [Compound 25, (S)-5-amino-4-((S)-4-carboxy-2-(3-(5-phenylisoxazol-3-yl)propanamido)butanamido)-5-oxopentanoic acid] | > 1000 nM | > 5000 nM | 332 nM | > 5000 nM | > 1000 nM | 160 nM | 550 nM | > 1000 nM |  |  | inhibitory activity toward MMPs (in words) (human MMPs): MMP inhibitors
NC(=O)[C@H](CCC(=O)O)NC(=O)CCc1ccc(-c2cc(-c3ccccc3)cs2)cc1 [Compound 105, (S)-5-amino-5-oxo-4-(3-(4-(4-phenylthiophen-2-yl)phenyl)propanamido)pentanoic acid] | 377 nM | > 1000 nM |  | > 1000 nM | > 1000 nM | 3.65 nM | 603 nM | > 1000 nM | > 10000 nM | > 10000 nM | 
NC(=O)[C@H](CCC(=O)O)NC(=O)[C@H](CCC(=O)O)NC(=O)CCc1ccc(-c2ccc(-c3ccccc3)cc2)cc1 [Compound 61, (S)-5-amino-4-((S)-4-carboxy-2-(3-(4′-phenylbiphenyl-4-yl)propanamido)butanamido)-5-oxopentanoic acid] | 53 nM | 74 nM | 132 nM | > 1000 nM | 76 nM | 1.63 nM | 20 nM | > 1000 nM | > 5000 nM | 502 nM | 
O=C(O)CC[C@H](NC(=O)CCc1ccc(-c2cc(-c3ccccc3)cs2)cc1)C(=O)Nc1cccc(CC(=O)O)c1 [Compound 106, (S)-5-(3-(carboxymethyl)phenylamino)-5-oxo-4-(3-(4-(4-phenylthiophen-2-yl)phenyl)propanamido)pentanoic acid] | 339 nM | 791 nM | 675 nM | 396 nM | 318 nM | 4.3 nM | 132 nM | > 1000 nM | > 1000 nM | > 1000 nM | 
NC(=O)[C@H](CCC(=O)O)NC(=O)[C@H](CCC(=O)O)NC(=O)CCc1ccc(-c2cccs2)cc1 [Compound 80, (S)-5-amino-4-((S)-4-carboxy-2-(3-(4-(thiophen-2-yl)phenyl)propanamido)butanamido)-5-oxopentanoic acid] | 142 nM | > 1000 nM | 40 nM | > 1000 nM | 373 nM | 8.6 nM | 321 nM | > 1000 nM | > 100000 nM | > 1000 nM | 
NC(=O)[C@H](CCC(=O)O)NC(=O)[C@H](CCC(=O)O)NC(=O)CCc1ccc(-c2nccs2)cc1 [Compound 37, (S)-5-amino-4-((S)-4-carboxy-2-(3-(4-(thiazol-2-yl)phenyl)propanamido)butanamido)-5-oxopentanoic acid] |  |  |  |  |  |  |  |  |  |  | Ki (MMP-2h; human MMP-2): 657 nM; Ki (MMP-3h; human MMP-3): > 5000 nM; Ki (MMP-8h; human MMP-8): > 1000 nM; Ki (MMP-9h; human MMP-9): > 1000 nM; Ki (MMP-10h; human MMP-10): > 1000 nM; Ki (MMP-12h; human MMP-12): 369 nM; Ki (MMP-13h; human MMP-13): 240 nM; Ki (MMP-14h; human MMP-14): > 1000 nM
CC(C)C[C@H](NC(=O)[C@H](CCC(=O)O)NC(=O)CCc1ccc(-c2ccccc2)cc1)C(N)=O [Compound 50, (S)-5-((S)-1-amino-4-methyl-1-oxopentan-2-ylamino)-4-(3-(biphenyl-4-yl)propanamido)-5-oxopentanoic acid] | > 1000 nM | > 50000 nM | 364 nM | > 5000 nM | > 5000 nM | 76 nM | > 1000 nM | > 5000 nM |  |  | 
NC(=O)[C@H](CCC(=O)O)NC(=O)[C@H](CCC(=O)O)NC(=O)CCc1cc(-c2ccccc2)no1 [Compound 14, (S)-5-amino-4-((S)-4-carboxy-2-(3-(3-phenylisoxazol-5-yl)propanamido)butanamido)-5-oxopentanoic acid] | 756 nM | > 10000 nM | 112 nM | > 1000 nM | > 1000 nM |  | > 1000 nM | > 1000 nM | > 10000 nM | > 10000 nM | 
O=C(O)CC[C@H](NC(=O)CCc1ccc(-c2cccs2)cc1)C(=O)Nc1cccc(CC(=O)O)c1 [Compound 90, (S)-5-(3-(carboxymethyl)phenylamino)-5-oxo-4-(3-(4-(thiophen-2-yl)phenyl)propanamido)pentanoic acid] | 116 nM | > 1000 nM | 18 nM | 284 nM | 143 nM | 8 nM | 366 nM | 430 nM |  |  | 
C[C@H](NC(=O)[C@H](CCC(=O)O)NC(=O)CCc1cc(-c2ccc(-c3ccccc3)cc2)no1)C(N)=O [Compound 23, (S)-5-((S)-1-amino-1-oxopropan-2-ylamino)-4-(3-(3-(biphenyl-4-yl)isoxazol-5-yl)propanamido)-5-oxopentanoic acid] | 78 nM | 460 nM | 351 nM | > 1000 nM | 276 nM | 11.2 nM | 80 nM | > 1000 nM |  |  | 
O=C(O)CC[C@H](NC(=O)CCc1ccc(-c2ccc(-c3ccccc3)cc2)cc1)C(=O)Nc1cccc(CC(=O)O)c1 [Compound 71, (S)-5-(3-(carboxymethyl)phenylamino)-4-(3-(4′-phenylbiphenyl-4-yl)propanamido)-5-oxopentanoic acid] | 18.1 nM | 34 nM | 99 nM | 645 nM | 7.7 nM | 1.05 nM | 10.2 nM | 696 nM |  |  | 
NC(=O)[C@H](CCC(=O)O)NC(=O)CCc1cc(-c2ccc(-c3cccc(Cl)c3)cc2)no1 [Compound 4, (S)-5-amino-4-(3-(3-(3′-chlorobiphenyl-4-yl)isoxazol-5-yl)propanamido)-5-oxopentanoic acid] | 90 nM | 118 nM | 119 nM | 120 nM | 122 nM | 11.8 nM | 46 nM | > 1000 nM |  |  | 
NC(=O)[C@H](CC(=O)O)NC(=O)[C@H](CC(=O)O)NC(=O)CCc1cc(-c2ccc(-c3ccccc3)cc2)no1 [Compound 19, (S)-4-amino-3-((S)-2-(3-(3-(biphenyl-4-yl)isoxazol-5-yl)propanamido)-3-carboxypropanamido)-4-oxobutanoic acid] | 52 nM | 750 nM | > 1000 nM | > 1000 nM | 527 nM | 54 nM | 24 nM | > 1000 nM |  |  | 
NC(=O)[C@H](CC(=O)O)NC(=O)[C@H](CCC(=O)O)NC(=O)CCc1cc(-c2ccc(-c3cccc(Cl)c3)cc2)no1 [Compound 8, (S)-5-((S)-1-amino-3-carboxy-1-oxopropan-2-ylamino)-4-(3-(3-(3′-chlorobiphenyl-4-yl)isoxazol-5-yl)propanamido)-5-oxopentanoic acid] | 112 nM | 243 nM | 556 nM | > 1000 nM | 35 nM | 11 nM | 30 nM | > 1000 nM |  |  | 
